Experiments:
CSF proteins = assay: Binding to CSF proteins (Centrifree filter separation); format: in vitro ADME, human (patients); conditions: 0.2, 0.5 or 1 μCi added to diluted CSF, 20 minutes; physiologic range, all concentrations tested
Method: To test the hypothesis that local sequestration of ^111In—Cl is due to protein binding, both ^111In—Cl and YCl3 were tested for binding to CSF and serum proteins. Serum proteins were obtained from residual baseline serum and CSF proteins were obtained from patients participating in other research protocols who had consented to blood sampling. To determine the level of ^111In—Cl protein binding, 0.2, 0.5, or 1 μCi of ^111In—Cl was added to diluted CSF (0.125 or 0.5) or diluted serum protein (0.125 and 0.25) and incubated for 20 minutes. To determine the level of YCl3 protein binding, 0.2, 0.5, or 1 μCi of YCl3 was added to diluted CSF (0.063 or 0.5) or diluted serum protein (0.063 and 0.375), and incubated for 20 minutes. After incubation, free radiopharmaceuticals were separated from protein bound ^111In—Cl or YCl3 using Amicon Centrifree Micropartition filters in a single centrifugation step at 3000 g for 15 minutes according to manufacturer's instructions (Amicon, Beverly, Mass.). The percent binding of YCl3 or ^111In—Cl to the CSF or serum protein was then calculated. As shown in FIG. 6 and FIG. 7 respectively, both YCl3 and ^111In—Cl bind avidly to CSF and serum protein within the physiologic range (a dilution factor between 0.2 and 0.6) at all concentrations tested. At room temperature, both YCl3 and ^111In—Cl have greater than 95% binding to serum proteins.

serum proteins = assay: Binding to serum proteins (Centrifree filter separation); format: in vitro ADME, human (patients); conditions: 0.2, 0.5 or 1 μCi added to diluted serum protein, 20 minutes; physiologic range, all concentrations tested
Method: To test the hypothesis that local sequestration of ^111In—Cl is due to protein binding, both ^111In—Cl and YCl3 were tested for binding to CSF and serum proteins. Serum proteins were obtained from residual baseline serum and CSF proteins were obtained from patients participating in other research protocols who had consented to blood sampling. To determine the level of ^111In—Cl protein binding, 0.2, 0.5, or 1 μCi of ^111In—Cl was added to diluted CSF (0.125 or 0.5) or diluted serum protein (0.125 and 0.25) and incubated for 20 minutes. To determine the level of YCl3 protein binding, 0.2, 0.5, or 1 μCi of YCl3 was added to diluted CSF (0.063 or 0.5) or diluted serum protein (0.063 and 0.375), and incubated for 20 minutes. After incubation, free radiopharmaceuticals were separated from protein bound ^111In—Cl or YCl3 using Amicon Centrifree Micropartition filters in a single centrifugation step at 3000 g for 15 minutes according to manufacturer's instructions (Amicon, Beverly, Mass.). The percent binding of YCl3 or ^111In—Cl to the CSF or serum protein was then calculated. As shown in FIG. 6 and FIG. 7 respectively, both YCl3 and ^111In—Cl bind avidly to CSF and serum protein within the physiologic range (a dilution factor between 0.2 and 0.6) at all concentrations tested. At room temperature, both YCl3 and ^111In—Cl have greater than 95% binding to serum proteins. […]

[1] = In vivo local sequestration at the injection site by serial scintigrams (intramuscular or intratumoral injection); set-up: species or system Fischer rats
Method: To further study the localization of unsealed radiopharmaceuticals after injection, in vivo imaging studies were carried out comparing ^111In DTPA (In-DTPA) (negative control) and Indium-111-Iron Macroaggregate (^111In-IMA) (positive control) to ^111In—Cl. ^111In emits gamma rays that can be detected using a gamma camera. ^111In-IMA was generated according to methods disclosed in U.S. Ser. No. 10/724,027, incorporated herein by reference. Each radiopharmaceutical was administered by intramuscular injection into the thigh muscle of Fischer rats which weighed approximately 200 grams. Two different doses of ^111In—Cl were administered to the rats, 0.4 and 0.8 mCi in 0.2 ml saline. Distribution of the ^111In—Cl was determined through serial scintigrams. […] In comparison, when ^111In-IMA was administered to rats, consistent retention (84%) of the ^111In-IMA was found 70 hours after administration (FIG. 8). Persistent intramuscular localization of ^111In—Cl was also found in rats for both dose levels of ^111In—Cl, with over 50% of the injected ^111In—Cl remaining in the injection site after three days.
To investigate whether the addition of free iron to radionuclides would increase the locoregional retention of various radionuclides, admixtures of ^67Ga-citrate, YCl3, or ^111In—Cl, were prepared with FeCl3.6H2O at 1-5 mg Fe/ml. Each radionuclide combination/admixture was administered either by intramuscular (IM) injection into the thigh muscle of the left leg (0.1-1.0 mCi) or by intratumoral (IT) injection into a tumor in the right leg (0.4-5.0 mCi) of Fischer rats. Distribution of the radionuclide was determined through serial scintigrams. Whole body images were acquired with a Siemens M-CAM camera using respective photo peaks of Ga-67, Tl-201 (for Y-90), or In-111, and 15-20% windows in photo energy. The typical imaging time was 0.5 to 5 minutes. A respective standard was present in the field of view (0.1-0.5 mCi), and used for image quantification by comparing images with the standard and normalizing the initial injection time as 100%. The Fe content in each combination/admixture was 1 mg in the total injectate.

[2] = Biodistribution and projected human radiation dosimetry after intravenous or intramuscular injection; format: in vivo, female Fisher rats; conditions: for human dosimetry estimate, kidney / human dosimetry estimate, red marrow: from rat biodistribution
Method: To evaluate the radiation toxicity of YCl3 after intravenous or intramuscular injection, parallel experiments were performed to evaluate the biodistribution and projected human radiation dosimetry of both ^111In—Cl and YCl3. The experiments used three female Fisher rats (140-160 grams) for each set of injections. Each rat was injected intravenously, or was injected intramuscularly in the right thigh, with 0.05 mCi of YCl3 or ^111In—Cl (with no carrier added) in 0.1 ml saline (pH 5-6). The effect of initial exposure of the radiopharmaceuticals to interstitial fluid was estimated by serum protein binding experiments using Millipore Centrifree filters as set forth in Example 2. Organs including the right and left femur, as well as the right and left thigh muscles, were harvested from each rat 7 days after injection. Human dosimetry for each radiopharmaceutical was constructed using established anthropomorphic models.

[3] = intravenous (Hirano et al. 1993); cited from earlier work
[4] = intratracheal instillation (Hirano et al. 1990); cited from earlier work

Q: What does the source list for `[Cl][90Y]([Cl])[Cl]` [YCl3, Yttrium-90 chloride]?
A: binding to CSF (CSF proteins): bind avidly; binding to serum protein (serum proteins): bind avidly; retention time with free iron ([1]; admixture with FeCl3.6H2O, intramuscular or intratumoral injection): Increase in the retention time; time over which cleared from the injection site ([1]; intramuscular injection in rats, without free iron, FIG. 15): approximately 20 hours; retention in the injection site ([1]; intramuscular injection, without free iron): not locally sequestered; skeletal distribution ([2]; estimated from the left femur (opposite to the injection site)): about 16%; radiation uptake in the right thigh muscle ([2]; intramuscular injection in right thigh): high; radiation uptake in right femur versus contralateral organ ([2]; intramuscular injection in right thigh, decreasing over time to): 3 times higher; radiation uptake in right femur versus contralateral organ ([2]; intramuscular injection in right thigh, initial): 6 times higher; human dosimetry estimate, kidney ([2]; intramuscular): 1.47 cGy/mCi; human dosimetry estimate, red marrow ([2]; intramuscular): 0.65 cGy/mCi; organs with the highest uptake ([2]; intravenous injection, 0.05 mCi in 0.1 ml saline): spleen, liver, and kidney; human dosimetry estimate, kidney ([2]; intravenous): 13.1 cGy/mCi; human dosimetry estimate, red marrow ([2]; intravenous): 5.77 cGy/mCi; formation of colloidal material in blood plasma [3]: dose-dependent formation of colloidal material; primary target organs [3]: liver and spleen; pulmonary retention half-life [4]: 169 days

Reference: patent US8329141B2, “Locoregional internal radionuclide ablation of abnormal tissues” (Board of Regents, The University of Texas System, priority 2004, dated 2012)
